From patent US20220008391A1, “NOVEL COMPOUNDS FOR CONTROLLING ARTHROPODS” (Bayer Animal Health GmbH, priority 2018, published 2022)
Like-named read-outs stand apart in the source and are kept apart here.

What was measured:
[1] = test system: Dermacentor variabilis; test: Antiparasitic activity after administration to dogs, D. variabilis ticks; format: in vivo; settings: DV
Protocol: (§1) Measurement of the Antiparasitic Activity after Administration of a Prodrug to Dogs
(§2) Compounds were dissolved in the appropriate volume of glycerol formal (p.a.) just before application to the animals (dose volume was adjusted to 0.1 ml/kg bodyweight). Dogs were injected intravenously respective subcutaneously (see table 8 for details).
(§3) Dogs were infested with ectoparasites according to table on study 1 day prior to counting for fleas, 2 days prior to counting for RS, IR, DV ticks and 3 days prior to counting for AA ticks. For this purpose, dogs were placed in an individually labeled box with grid windows. The ticks were released onto the back of the dogs and were allowed to disperse and move into the hair without disturbance. The dog remained in the box for approximately 120 minutes with the lid closed and the light switched off in the room. For flea infestations, flea containers were opened in the animal's cage and fleas were applied on the dog's back between the shoulders.
(§4) Tick counts including removal of I. ricinus, R. sanguineus and D. variabilis were conducted 48(±4) hours after the infestation. Tick counts including removal of A. americanum were conducted 72(±4) hours after the infestation. Flea counts were conducted 24(±4) hours after the infestation.
(§5) On each parasite assessment day percent efficacy was calculated as arithmetic mean parasite numbers as life attached and live free tick numbers and live flea numbers of the respective study group in comparison to parasite counts on a placebo non-treated control group.

[2] = test system: Dermacentor variabilis; test: Antiparasitic activity after administration to rats, tick nymphs; format: in vivo; settings: Dermacentor variabilis, ip, 10 mg/kg, DV N
Protocol: (§6) Measurement of the Antiparasitic Activity after Administration of a Prodrug to Rats Compounds were dissolved in the appropriate volume of glycerol formal (p.a.) just before application to the animals (dose volume was adjusted to 0.03 mL/kg bodyweight). 5 rats per group were either injected intraperitoneally or subcutaneously. Rats were infested with 30 Dermacentor variabilis nymphs on study days −2, 7, 14, 21, 28, 35 and 30 adult Ctenocephalides fleas on study days −1, 8, 15, 22, 29, 36. […] Percent efficacy was calculated as arithmetic mean parasite numbers as life attached tick numbers and live flea numbers of the respective study group in comparison to parasite counts on a placebo-treated control group. Infestation of groups with less than 75% efficacy on two consecutive counting occasions will terminated for the respective parasite.

[3] = test system: Amblyomma americanum; test: Antiparasitic activity after administration to dogs, A. americanum ticks; format: in vivo; settings: AA
Protocol: as §1, §2, §3, §4, §5

[4] = test system: Ixodes ricinus; test: Antiparasitic activity after administration to dogs, I. ricinus ticks; format: in vivo; settings: IR
Protocol: as §1, §2, §3, §4, §5

[5] = Evaluation of pharmacokinetics (in vivo), dog; settings: concentration of parent compound A
Protocol: Evaluation of Pharmacokinetics (In Vivo) To evaluate the pharmacokinetics of test substances in vivo, these test substances are dissolved in appropriate formulation vehicles (ethanol, dimethyl sulfoxide, PEG400, glycerol formal etc.), or mixtures thereof. The test substances are then administered to rats or dogs intravenously, orally or subcutaneously. The intravenous application is performed as bolus. Administered doses range usually between 0.1 to 5 mg/kg, however, doses for subcutaneous and oral administration can exceed this range up to doses of 30 mg/kg. Blood samples are retrieved via a catheter, exsanguination or venous puncture in vials containing appropriate anticoagulants, such as lithium heparinate or potassium EDTA. Plasma is generated from the blood via centrifugation. Blood samples are taken over an appropriate time interval, usually lasting up to 144h after administration. If necessary, samples from later time points can also be taken. […] The quantitative measurement of the test substances in the samples is performed using calibration curves in the respective matrices. […] The evaluation of the plasma concentration/time profiles are afterwards evaluated using a validated pharmacokinetics evaluation program. […]

[6] = test system: Ctenocephalides felis; test: Antiparasitic activity after administration to rats, fleas; format: in vivo; settings: Ctenocephalides felis, ip, 10 mg/kg, CF A
Protocol: as §6

[7] = test system: Ctenocephalides felis; test: Antiparasitic activity after administration to dogs, fleas; format: in vivo; settings: iv, 2 × 5 mg/kg, CF
Protocol: as §1, §2, §3, §4, §5

[8] = test system: Rhipicephalus sanguineus; test: Antiparasitic activity after administration to dogs, R. sanguineus ticks; format: in vivo; settings: RS
Protocol: as §1, §2, §3, §4, §5

[9] = Evaluation of pharmacokinetics (in vivo), rat; settings: concentration of parent compound A
Protocol: Evaluation of Pharmacokinetics (In Vivo) To evaluate the pharmacokinetics of test substances in vivo, these test substances are dissolved in appropriate formulation vehicles (ethanol, dimethyl sulfoxide, PEG400, glycerol formal etc.), or mixtures thereof. The test substances are then administered to rats or dogs intravenously, orally or subcutaneously. The intravenous application is performed as bolus. Administered doses range usually between 0.1 to 5 mg/kg, however, doses for subcutaneous and oral administration can exceed this range up to doses of 30 mg/kg. Blood samples are retrieved via a catheter, exsanguination or venous puncture in vials containing appropriate anticoagulants, such as lithium heparinate or potassium EDTA. Plasma is generated from the blood via centrifugation. Blood samples are taken over an appropriate time interval, usually lasting up to 144h after administration. If necessary, samples from later time points can also be taken. If possible, time points are chosen so that the initial absorption phase, the maximum plasma concentration (Cmax), and exposure within a certain time interval (AUC(0-t)) are described. Furthermore, it is possible to also retrieve organ-, tissue- and urine samples. The quantitative measurement of the test substances in the samples is performed using calibration curves in the respective matrices. The protein content of the samples is precipitated using acetonitrile or methanol. Thereafter, the samples are separated using HPLC in combination with reversed phase chromatography columns. The HPLC system is coupled to a triple quadrupole mass spectrometer via an electrospray interface. The evaluation of the plasma concentration/time profiles are afterwards evaluated using a validated pharmacokinetics evaluation program. […] Relative bioavailability (Frel) was used to describe the exposure of parent after prodrug administration compared to the exposure of parent after direct administration of compound A which was normalised to 100%.

[10] = iv, 2 × 5 mg/kg, study 1, month 1
[11] = iv, 2 × 5 mg/kg, study 1, month 2
[12] = iv, 2 × 5 mg/kg, study 1, month 3
[13] = iv, 2 × 5 mg/kg, study 1, month 4
[14] = iv, 2 × 5 mg/kg, study 1, month 5
[15] = iv, 2 × 5 mg/kg, study 1, month 6
[16] = 48 h, study day 2, read-out: Efficacy SD2
[17] = 216 h, study day 9, read-out: Efficacy SD9
[18] = 384 h, study day 16, read-out: Efficacy SD16
[19] = iv bolus of the named substance
[20] = sc administration of the named substance

In the case of N#CC1(NC(=O)c2cc(-c3cnn(-c4c(Cl)cc(C(F)(C(F)(F)F)C(F)(F)F)cc4OC(F)(F)F)c3)ccc2Cl)CC1 [Parent Compound A, 2-Chlor-5-{1-[2-chlor-4-(1,1,1,2,3,3,3-heptafluorpropan-2-yl)-6-(trifluormethoxy)phenyl]-1H-pyrazol-4-yl}-N-(1-cyanocyclopropyl)benzamide], the “% Efficacy in study month 1” value [1, 10] is reported as 98%, the “% Efficacy in study month 2” value [1, 11] is reported as 99% and the “% Efficacy in study month 3” value [1, 12] is reported as 100%. The “% Efficacy in study month 4” value [1, 13] was 95%, the “% Efficacy in study month 5” value [1, 14] was 98% and the “% Efficacy in study month 6” value [1, 15] was 84%. For the same compound, the “% Efficacy in study month 6” value ([1]; sc, 5 mg/kg, study 3, month 6) was 19%, the inhibition in vivo at 10 mg/kg [2, 16] was 96% and the inhibition in vivo at 10 mg/kg [2, 17] was 87%. For the same compound, the inhibition in vivo at 10 mg/kg [2, 18] was 83%, the inhibition in vivo at 10 mg/kg ([2]; 552 h, study day 23, read-out: Efficacy SD23) was 93% and the inhibition in vivo at 10 mg/kg ([2]; 720 h, study day 30, read-out: Efficacy SD30) was 53%. For the same compound, the inhibition in vivo at 10 mg/kg ([2]; 888 h, study day 37, read-out: Efficacy SD37) was 32%, the “% Efficacy in study month 1” value ([3]; iv, 2 × 5 mg/kg, study 2, month 1) was 100% and the “% Efficacy in study month 2” value ([3]; iv, 2 × 5 mg/kg, study 2, month 2) was 99%. For the same compound, the “% Efficacy in study month 3” value ([3]; iv, 2 × 5 mg/kg, study 2, month 3) was 99%, the “% Efficacy in study month 4” value ([3]; iv, 2 × 5 mg/kg, study 2, month 4) was 99% and the “% Efficacy in study month 5” value ([3]; iv, 2 × 5 mg/kg, study 2, month 5) was 95%. The “% Efficacy in study month 6” value ([3]; iv, 2 × 5 mg/kg, study 2, month 6) was 98%, the “% Efficacy in study month 6” value ([3]; sc, 5 mg/kg, study 3, month 6) was 90% and the “% Efficacy in study month 1” value [4, 10] was 100%. The “% Efficacy in study month 2” value [4, 11] was 100%, the “% Efficacy in study month 3” value [4, 12] was 100% and the “% Efficacy in study month 4” value [4, 13] was 100%. For the same compound, the “% Efficacy in study month 5” value [4, 14] was 98%, the “% Efficacy in study month 6” value [4, 15] was 98% and the “% Efficacy in study month 6” value ([4]; sc, 5 mg/kg, study 3, month 6) was 3%. For the same compound, the “AUC(0-72 h)norm of parent compound A” value [5, 19] was 6.0 kg·h/L, the “AUC(0-384 h)norm of parent compound A” value [5, 20] was 1.0 kg·h/L and the pest or weed control at 10 mg/kg [6, 16] was 84%. The pest or weed control at 10 mg/kg [6, 17] was 68%, the pest or weed control at 10 mg/kg [6, 18] was 71% and the “% Efficacy in study month 1” value ([7]; study 1, month 1) was 100%. For the same compound, the “% Efficacy in study month 2” value ([7]; study 1, month 2) was 100%, the “% Efficacy in study month 3” value ([7]; study 1, month 3) was 100% and the “% Efficacy in study month 4” value ([7]; study 1, month 4) was 100%. For the same compound, the “% Efficacy in study month 5” value ([7]; study 1, month 5) was 100%, the “% Efficacy in study month 6” value ([7]; study 1, month 6) was 100% and the “% Efficacy in study month 1” value [8, 10] was 100%. The “% Efficacy in study month 2” value [8, 11] was 100%, the “% Efficacy in study month 3” value [8, 12] was 100% and the “% Efficacy in study month 4” value [8, 13] was 100%. For the same compound, the “% Efficacy in study month 5” value [8, 14] was 100%, the “% Efficacy in study month 6” value [8, 15] was 99% and the “% Efficacy in study month 6” value ([8]; sc, 5 mg/kg, study 3, month 6) was 50%. The “AUC(0-144 h)norm of parent compound A” value [9, 19] was 11 kg·h/L, the “AUC(0-24)norm of parent compound A” value ([9]; po, 20 mg/kg) was 0.37 kg·h/L and the “AUC(0-144 h)norm of parent compound A” value [9, 20] was 1.7 kg·h/L.
